Results on 7 compounds are retold here after patent publication US20250171432A1, “COMPOUNDS AND METHODS OF USE” (Tango Therapeutics, Inc., priority 2022, published 2025).

Some results are limits rather than exact numbers.

In general, IC50 refers to the concentration at which inhibition is half-maximal. Higher therefore signals weaker potency. Usually IC90 stands for the concentration needed for an effect of 90%. A lower IC90 goes with greater potency.

Format in all cases: cell-based
The test system of assay [1] is SDMA (PRMT5 activity) in HAP1 MTAP-deleted cell line. Kind of assay: SDMA in-cell western assay, HAP1 MTAP-deleted. The conditions noted are these: for IC50 / IC90: Homo sapiens, SDMA in-cell western, HAP1 MTAP-deleted cells, 24 hours compound incubation; for Hap1 MTAP intact/deleted ratio: ratio of SDMA IC50 in HAP1 MTAP-intact to HAP1 MTAP-deleted cell line. The method, then:
(§1) The SAM-cooperative PRMT5 inhibitor, GSK3326595, was sourced from SelleckChem and maintained as a 10 mM DMSO stock. All test compounds are maintained as 10 mM DMSO stocks
(§2) On Day 0, MTAP-intact or MTAP-deleted cells are seeded in a 384-well plate, and incubated in a humidified, 5% CO2 tissue culture incubator for 16-24 hours. On Day 1, the test compounds are dispensed to wells at defined concentrations using a Tecan D300e digital dispenser (n=4), and the volume of DMSO is normalized to highest class volume. Each plate includes wells dosed with defined concentrations of GSK33226595 as a plate control. The compounds are incubated with cells for 24 hours in a humidified, 5% CO2 tissue culture incubator.
(§3) On Day 2, the compound-treated cells are fixed with a final concentration of 4% formaldehyde. The cells are then washed/permeabilized with 1×PBS+0.1% Triton X-100, and then blocked with 5% goat serum/1×TBS.
(§4) The cells are washed with 1×PBS+0.1% Triton X-100, and then washed again with ddH20. The plates are then imaged using a NIR fluorescent imager (LiCor Odyssey).
(§5) For data analysis, the SDMA signal is normalized to the DRAQ5 signal. Assay background is determined by the signal from wells treated with 1 μM GSK3326595, and subtracted from every well. The data are plotted as % of the DMSO control wells for the MTAP-intact and the MTAP-deleted cell lines independently, and fitted to the 4-parameter logistic (4-PL) Hill equation with maximal effect constrained to 0. The fit was performed using GraphPad Prism or the default IC50 fitting procedure in Dotmatics Studies 5.4 as part of a customized data analysis protocol.

In assay [2] the test system is SDMA (PRMT5 activity) in HAP1 MTAP-intact cell line. Kind of assay: SDMA in-cell western assay, HAP1 MTAP-intact. The conditions noted are these: Homo sapiens, HAP1, 24 h, SDMA in-cell western, HAP1 MTAP-intact cells, 24 hours compound incubation. Here is the method:
as §1, §2, §3, §4, §5

Assay [3] concerns HAP1 MTAP-deleted cell line. Kind of assay: Viability assay (CellTiter-Glo), HAP1 MTAP-deleted. The conditions noted are these: Homo sapiens, 168 h, HAP1 MTAP-deleted cells, 7 days. The method, then:
All test compounds are maintained as 10 mM DMSO stocks.
On Day 0, MTAP-intact and MTAP-deleted cells are seeded in a 96-well plate, and incubated in a humidified, 5 or 10% CO2 tissue culture incubator for 16-24 hours. On Day 1, the test compounds are dispensed to wells at defined concentrations using a Tecan D300e digital dispenser (n=3), and the volume of DMSO is normalized to highest class volume (0.2%). The compound-treated plates are incubated for 7 days in a humidified, 5 or 10% CO2 tissue culture incubator.
On Day 7, the plates are removed from the tissue culture incubator and allowed to equilibrate to room temperature. Then either a ½% volume CellTiter-Glo Luminescent Cell Viability Assay reagent (Promega G7572) is added to each well, or the media is removed from every well and a 1:3 dilution of CellTiter-Glo 2.0 Cell Viability Assay reagent (Promega G9241) in 1×PBS is added. Ten minutes after addition, the luminescent signal is detected by an Envision plate reader. The data are plotted as % of the DMSO control wells for the MTAP-intact and the MTAP-deleted cell lines independently, and fitted to the 4-parameter logistic (4-PL) Hill equation with maximal effect constrained to 0. The fit was performed using GraphPad Prism or the default IC50 fitting procedure in Dotmatics Studies 5.4 as part of a customized data analysis protocol.
In general terms: Cellular ATP, detected with luciferase, serves as a proxy for viable cell number.

On to `CCc1cc(NC(=O)C(=O)N2C[C@@H](C)CC[C@@H]2c2ccc3nn(CCN(C)C)cc3c2)cnc1N` [Compound 72], for which the IC50 in assay [1] is 5 to 50 nM; in assay [2] it was > 50 nM; in assay [3], < 100 nM. Also, in assay [1], the concentration for an effect of 90% (IC90) is > 125 nM. Moreover, the “Hap1 MTAP intact/deleted ratio” value in assay [1] was “A (“A” indicates an IC50 ratio greater than or equal to 30 fold)”.
For the compound `COc1ncc(NC(=O)C(=O)N2C[C@@H](C)CC[C@@H]2c2ccc3sc(C[C@H](C)N(C)C)nc3c2)cc1C(N)=O` [Compound 98, 5-(2-((2R,5S)-2-(2-((S)-2-(dimethylamino)propyl)benzo[d]thiazol-5-yl)-5-methylpiperidin-1-yl)-2-oxoacetamido)-2-methoxynicotinamide], in assay [1], the half-inhibitory concentration (IC50) is < 5 nM, the IC90 was < 75 nM and the “Hap1 MTAP intact/deleted ratio” value was “A (“A” indicates an IC50 ratio greater than or equal to 30 fold)”. The IC50 in assay [2] was > 50 nM.
For the compound `COc1ncc(NC(=O)C(=O)N2C[C@@H](C)CC[C@@H]2c2ccc3sc(C45CCC(CC4)N(C)C5)nc3c2)cc1C(N)=O` [Compound 99, 2-methoxy-5-(2-((2R,5S)-5-methyl-2-(2-(2-methyl-2-azabicyclo[2.2.2]octan-4-yl)benzo[d]thiazol-5-yl)piperidin-1-yl)-2-oxoacetamido)nicotinamide], in assay [1], the half-inhibitory concentration (IC50) was < 5 nM, the concentration for an effect of 90% (IC90) was < 75 nM and the “Hap1 MTAP intact/deleted ratio” value was “A (“A” indicates an IC50 ratio greater than or equal to 30 fold)”. In assay [2], the 50% inhibitory concentration (IC50) was > 50 nM. Also, the half-inhibitory concentration (IC50) in assay [3] was < 100 nM.
The matching figures for `COc1ncc(NC(=O)C(=O)N2C[C@@H](C)CC[C@@H]2c2ccc3sc([C@H](C)N(C)C)nc3c2)cc1C(N)=O` [Compound 96, 2-methoxy-5-[[2-oxo-2-[(2R,5S)-5-methyl-2-[2-[(1S)-1-(dimethylamino)ethyl]-1,3-benzothiazol-5-yl]-1-piperidyl]acetyl]amino]pyridine-3-carboxamide]: 5 to 50 nM, 75 to 125 nM, “A (“A” indicates an IC50 ratio greater than or equal to 30 fold)”, > 50 nM and < 100 nM.
Consider `CCc1cc(NC(=O)C(=O)N2C[C@@H](C)CC[C@@H]2c2ccc3sc(C[C@H](C)N(C)C)nc3c2)cnc1N` [Compound 55, N-(6-amino-5-ethylpyridin-3-yl)-2-((2R,5S)-2-(2-((S)-2-(dimethylamino)propyl)benzo[d]thiazol-5-yl)-5-methylpiperidin-1-yl)-2-oxoacetamide], for which, in assay [1], the IC50 is < 5 nM, the IC90 was < 75 nM and the “Hap1 MTAP intact/deleted ratio” value is “B (“B” indicates an IC50 ratio greater than or equal to 15 fold but lower than 30 fold)”. Besides, the half-maximal inhibitory concentration (IC50) in assay [2] lay within 5 to 50 nM. Further, in assay [3], the 50% inhibitory concentration (IC50) is < 100 nM.
With `[2H][13C]([2H])([2H])N1CCC(c2nc3cc([C@H]4CC[C@H](C)CN4C(=O)C(=O)Nc4cnc(N)c(CC)c4)ccc3s2)CC1` [Compound 129, N-(6-amino-5-ethyl-3-pyridyl)-2-oxo-2-[(2R,5S)-5-methyl-2-[2-[1-(trideuterio(1^13C)methyl)-4-piperidyl]-1,3-benzothiazol-5-yl]-1-piperidyl]acetamide], the IC50 in assay [3] was < 100 nM.
Same read-out and setting: the result for `[2H]C([2H])([2H])N1CCC(c2nc3cc([C@H]4CC[C@H](C)CN4C(=O)C(=O)Nc4cnc(OC)c(C(N)=O)c4)ccc3s2)CC1` [Compound 5, 2-methoxy-5-[[2-oxo-2-[(2R,5S)-5-methyl-2-[2-[1-(trideuteriomethyl)-4-piperidyl]-1,3-benzothiazol-5-yl]-1-piperidyl]acetyl]amino]pyridine-3-carboxamide] reads < 100 nM.
